Assay results taken from PubChem BioAssay (NCI).
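These data come from cells grown in 96-well plates and exposed to compound for 48 hours at five concentrations. TGI: concentration producing complete growth inhibition.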

Experiments:
Assay in all cases: NCI-60 cell line screen, 48 h
786-0 renal = system: 786-0 renal
A549 NSCLC = system: A549 NSCLC
ACHN renal = system: ACHN renal
CAKI-1 renal = system: CAKI-1 renal
CCRF-CEM leukemia = system: CCRF-CEM leukemia
DLD-1 colon = system: DLD-1 colon
DMS 114 small cell lung = system: DMS 114 small cell lung
EKVX NSCLC = system: EKVX NSCLC
HCC-2998 colon = system: HCC-2998 colon
HCT-116 colon = system: HCT-116 colon
HCT-15 colon = system: HCT-15 colon
HL-60(TB) leukemia = system: HL-60(TB) leukemia
HOP-18 NSCLC = system: HOP-18 NSCLC
HOP-62 NSCLC = system: HOP-62 NSCLC
HOP-92 NSCLC = system: HOP-92 NSCLC
HT29 colon = system: HT29 colon
IGROV1 ovarian = system: IGROV1 ovarian
K-562 leukemia = system: K-562 leukemia
KM12 colon = system: KM12 colon
KM20L2 colon = system: KM20L2 colon
LOX IMVI melanoma = system: LOX IMVI melanoma
LXFL 529 NSCLC = system: LXFL 529 NSCLC
M14 melanoma = system: M14 melanoma
M19-MEL melanoma = system: M19-MEL melanoma
MALME-3M melanoma = system: MALME-3M melanoma
MOLT-4 leukemia = system: MOLT-4 leukemia
NCI-H226 lung = system: NCI-H226 lung
NCI-H23 lung = system: NCI-H23 lung
NCI-H460 lung = system: NCI-H460 lung
NCI-H522 lung = system: NCI-H522 lung
OVCAR-3 ovarian = system: OVCAR-3 ovarian
OVCAR-4 ovarian = system: OVCAR-4 ovarian
OVCAR-5 ovarian = system: OVCAR-5 ovarian
OVCAR-8 ovarian = system: OVCAR-8 ovarian
RPMI-8226 leukemia = system: RPMI-8226 leukemia
RXF 393 renal = system: RXF 393 renal
SF-268 CNS = system: SF-268 CNS
SF-295 CNS = system: SF-295 CNS
SF-539 CNS = system: SF-539 CNS
SK-MEL-2 melanoma = system: SK-MEL-2 melanoma
SK-MEL-28 melanoma = system: SK-MEL-28 melanoma
SK-MEL-5 melanoma = system: SK-MEL-5 melanoma
SK-OV-3 ovarian = system: SK-OV-3 ovarian
SN12C renal = system: SN12C renal
SNB-19 CNS = system: SNB-19 CNS
SNB-78 CNS = system: SNB-78 CNS
SR leukemia = system: SR leukemia
SW-620 colon = system: SW-620 colon
TK-10 renal = system: TK-10 renal
U251 CNS = system: U251 CNS
UACC-257 melanoma = system: UACC-257 melanoma
UACC-62 melanoma = system: UACC-62 melanoma
UO-31 renal = system: UO-31 renal
XF 498 CNS = system: XF 498 CNS
A498 renal = system: A498 renal
COLO 205 colon = system: COLO 205 colon
DMS 273 small cell lung = system: DMS 273 small cell lung
SNB-75 CNS = system: SNB-75 CNS

Compound: CCc1cccc(C)c1NC(=O)CCc1nc(=S)[nH][nH]1
- TGI (786-0 renal): > 100 µM
- TGI (A549 NSCLC): > 100 µM
- TGI (ACHN renal): > 100 µM
- TGI (CAKI-1 renal): > 100 µM
- TGI (CCRF-CEM leukemia): > 100 µM
- TGI (DLD-1 colon): > 100 µM
- TGI (DMS 114 small cell lung): > 100 µM
- TGI (EKVX NSCLC): > 100 µM
- TGI (HCC-2998 colon): > 100 µM
- TGI (HCT-116 colon): > 100 µM
- TGI (HCT-15 colon): > 100 µM
- TGI (HL-60(TB) leukemia): > 100 µM
- TGI (HOP-18 NSCLC): > 100 µM
- TGI (HOP-62 NSCLC): > 100 µM
- TGI (HOP-92 NSCLC): > 100 µM
- TGI (HT29 colon): > 100 µM
- TGI (IGROV1 ovarian): > 100 µM
- TGI (K-562 leukemia): > 100 µM
- TGI (KM12 colon): > 100 µM
- TGI (KM20L2 colon): > 100 µM
- TGI (LOX IMVI melanoma): > 100 µM
- TGI (LXFL 529 NSCLC): > 100 µM
- TGI (M14 melanoma): > 100 µM
- TGI (M19-MEL melanoma): > 100 µM
- TGI (MALME-3M melanoma): > 100 µM
- TGI (MOLT-4 leukemia): > 100 µM
- TGI (NCI-H226 lung): > 100 µM
- TGI (NCI-H23 lung): > 100 µM
- TGI (NCI-H460 lung): > 100 µM
- TGI (NCI-H522 lung): > 100 µM
- TGI (OVCAR-3 ovarian): > 100 µM
- TGI (OVCAR-4 ovarian): > 100 µM
- TGI (OVCAR-5 ovarian): > 100 µM
- TGI (OVCAR-8 ovarian): > 100 µM
- TGI (RPMI-8226 leukemia): > 100 µM
- TGI (RXF 393 renal): > 100 µM
- TGI (SF-268 CNS): > 100 µM
- TGI (SF-295 CNS): > 100 µM
- TGI (SF-539 CNS): > 100 µM
- TGI (SK-MEL-2 melanoma): > 100 µM
- TGI (SK-MEL-28 melanoma): > 100 µM
- TGI (SK-MEL-5 melanoma): > 100 µM
- TGI (SK-OV-3 ovarian): > 100 µM
- TGI (SN12C renal): > 100 µM
- TGI (SNB-19 CNS): > 100 µM
- TGI (SNB-78 CNS): > 100 µM
- TGI (SR leukemia): > 100 µM
- TGI (SW-620 colon): > 100 µM
- TGI (TK-10 renal): > 100 µM
- TGI (U251 CNS): > 100 µM
- TGI (UACC-257 melanoma): > 100 µM
- TGI (UACC-62 melanoma): > 100 µM
- TGI (UO-31 renal): > 100 µM
- TGI (XF 498 CNS): > 100 µM

Compound: CN(C)c1nc(Oc2nc(N(C)C)nc(N(C)C)n2)nc(N(C)C)n1
- TGI (786-0 renal): > 100 µM
- TGI (A498 renal): > 100 µM
- TGI (A549 NSCLC): > 100 µM
- TGI (ACHN renal): > 100 µM
- TGI (CAKI-1 renal): > 100 µM
- TGI (CCRF-CEM leukemia): > 100 µM
- TGI (COLO 205 colon): > 100 µM
- TGI (DLD-1 colon): > 100 µM
- TGI (DMS 114 small cell lung): > 100 µM
- TGI (DMS 273 small cell lung): > 100 µM
- TGI (EKVX NSCLC): > 100 µM
- TGI (HCC-2998 colon): > 100 µM
- TGI (HCT-116 colon): > 100 µM
- TGI (HCT-15 colon): > 100 µM
- TGI (HL-60(TB) leukemia): > 100 µM
- TGI (HOP-18 NSCLC): > 100 µM
- TGI (HOP-92 NSCLC): > 100 µM
- TGI (HT29 colon): > 100 µM
- TGI (IGROV1 ovarian): > 100 µM
- TGI (K-562 leukemia): > 100 µM
- TGI (KM12 colon): > 100 µM
- TGI (KM20L2 colon): > 100 µM
- TGI (LOX IMVI melanoma): > 100 µM
- TGI (LXFL 529 NSCLC): > 100 µM
- TGI (M14 melanoma): > 100 µM
- TGI (M19-MEL melanoma): > 100 µM
- TGI (MALME-3M melanoma): > 100 µM
- TGI (MOLT-4 leukemia): > 100 µM
- TGI (NCI-H226 lung): > 100 µM
- TGI (NCI-H23 lung): > 100 µM
- TGI (NCI-H460 lung): > 100 µM
- TGI (NCI-H522 lung): > 100 µM
- TGI (OVCAR-3 ovarian): > 100 µM
- TGI (OVCAR-4 ovarian): > 100 µM
- TGI (OVCAR-5 ovarian): > 100 µM
- TGI (OVCAR-8 ovarian): > 100 µM
- TGI (RPMI-8226 leukemia): > 100 µM
- TGI (RXF 393 renal): > 100 µM
- TGI (SF-268 CNS): > 100 µM
- TGI (SF-295 CNS): > 100 µM
- TGI (SF-539 CNS): > 100 µM
- TGI (SK-MEL-2 melanoma): > 100 µM
- TGI (SK-MEL-28 melanoma): > 100 µM
- TGI (SK-MEL-5 melanoma): > 100 µM
- TGI (SK-OV-3 ovarian): > 100 µM
- TGI (SN12C renal): > 100 µM
- TGI (SNB-19 CNS): > 100 µM
- TGI (SNB-75 CNS): > 100 µM
- TGI (SNB-78 CNS): > 100 µM
- TGI (SR leukemia): > 100 µM
- TGI (SW-620 colon): > 100 µM
- TGI (TK-10 renal): > 100 µM
- TGI (U251 CNS): > 100 µM
- TGI (UACC-257 melanoma): > 100 µM
- TGI (UACC-62 melanoma): > 100 µM
- TGI (UO-31 renal): > 100 µM
- TGI (XF 498 CNS): > 100 µM

Compound: COc1cc2ccc3c4cc(OC)c(OC)cc4c[n+](C)c3c2cc1O
- TGI (786-0 renal): > 100 µM
- TGI (A498 renal): > 48.1 µM
- TGI (A549 NSCLC): > 100 µM
- TGI (ACHN renal): > 76.6 µM
- TGI (CAKI-1 renal): > 100 µM
- TGI (CCRF-CEM leukemia): > 100 µM
- TGI (COLO 205 colon): > 100 µM
- TGI (DLD-1 colon): > 100 µM
- TGI (DMS 114 small cell lung): > 82.9 µM
- TGI (DMS 273 small cell lung): > 100 µM
- TGI (EKVX NSCLC): > 100 µM
- TGI (HCC-2998 colon): > 100 µM
- TGI (HCT-116 colon): > 100 µM
- TGI (HCT-15 colon): > 100 µM
- TGI (HL-60(TB) leukemia): > 100 µM
- TGI (HOP-18 NSCLC): > 100 µM
- TGI (HOP-62 NSCLC): > 100 µM
- TGI (HOP-92 NSCLC): > 100 µM
- TGI (HT29 colon): > 100 µM
- TGI (IGROV1 ovarian): > 100 µM
- TGI (K-562 leukemia): > 100 µM
- TGI (KM12 colon): > 100 µM
- TGI (KM20L2 colon): > 100 µM
- TGI (LOX IMVI melanoma): > 100 µM
- TGI (LXFL 529 NSCLC): > 100 µM
- TGI (M14 melanoma): > 100 µM
- TGI (M19-MEL melanoma): > 100 µM
- TGI (MALME-3M melanoma): > 100 µM
- TGI (MOLT-4 leukemia): > 100 µM
- TGI (NCI-H226 lung): > 100 µM
- TGI (NCI-H23 lung): > 100 µM
- TGI (NCI-H460 lung): > 86.7 µM
- TGI (NCI-H522 lung): 78.7 µM
- TGI (OVCAR-3 ovarian): > 100 µM
- TGI (OVCAR-4 ovarian): > 100 µM
- TGI (OVCAR-5 ovarian): > 100 µM
- TGI (OVCAR-8 ovarian): > 100 µM
- TGI (RPMI-8226 leukemia): > 100 µM
- TGI (RXF 393 renal): > 100 µM
- TGI (SF-268 CNS): 7.23 µM
- TGI (SF-539 CNS): > 100 µM
- TGI (SK-MEL-2 melanoma): > 100 µM
- TGI (SK-MEL-28 melanoma): > 100 µM
- TGI (SK-MEL-5 melanoma): > 100 µM
- TGI (SK-OV-3 ovarian): > 100 µM
- TGI (SN12C renal): 43 µM
- TGI (SNB-19 CNS): > 100 µM
- TGI (SNB-75 CNS): > 100 µM
- TGI (SNB-78 CNS): > 100 µM
- TGI (SW-620 colon): > 100 µM
- TGI (TK-10 renal): > 100 µM
- TGI (U251 CNS): > 87.9 µM
- TGI (UACC-257 melanoma): > 100 µM
- TGI (UACC-62 melanoma): > 100 µM
- TGI (UO-31 renal): > 100 µM
- TGI (XF 498 CNS): > 88.1 µM
